Measured values as given in patent US20260199284A1, “SPECIFIC VASH COMPOUNDS (SVC) INHIBITORS FOR HEART DISEASES” (MT ACT, priority 2023, published 2026).
Entries after “also recorded” stand apart in the source; their conditions may differ.

Experiments:
[1] = test system: primary cardiomyocytes isolated from healthy Sprague Dawley rats; assay: Unloaded shortening contractility of healthy isolated cardiomyocytes; assay type: cell-based; conditions: healthy rat cardiomyocytes
Experimental: FIG. 13: Dose-dependent modest improvement in contraction and relaxation kinetics during unloaded shortening upon VASH inhibition in primary cardiomyocytes isolated from healthy Sprague Dawley rats. A) Resting sarcomere length, B) fractional shortening, C) contraction time and D) relaxation time in healthy isolated rat cardiomyocytes. n=50-60 myocytes per group from N=3 Sprague Dawley rats. One-way ANOVA.
(§1) Contractility was measured in a custom-fabricated cell chamber (IonOptix) mounted on an LSM Zeiss 880 inverted confocal microscope using either a 40 or 63× oil 1.4 numerical aperture objective and transmitted light camera (IonOptix MyoCam-S). Experiments were conducted at room temperature and field stimulation was provided at 1.0 Hz with a cell stimulator (MyoPacer, IonOptix). After 10-30 seconds of pacing to achieve steady state, five traces were recorded and analyzed. Sarcomere length was measured optically by Fourier transform analysis (IonWizard, IonOptix).

[2] = target: recombinant human VASH2 (Homo sapiens, UniProt Q86V25); assay: In vitro detyrosination assay with recombinant human VASH2; assay type: biochemical; conditions: increasing concentration
Experimental: FIG. 32: In vitro detyrosination assays using recombinant human VASH1 and VASH2 enzymes in presence of increasing concentration of SVC_01.
Specificity of SVC-01 was assayed using both human VASH1 and VASH2 recombinant enzymes. […] Finally, to ensure that regulation of other genes involved in the detyrosination-tyrosination cycle is not affected, we analysed gene expression of all relevant and associated genes following treatment with SVC-02 in adult human cardiomyocytes. We found no alteration of VASH1, VASH2, MATCAP, TTL or SVBP gene expression between vehicle control and SVC-02 treated cells (FIG. 34).

[3] = test system: primary cardiomyocytes isolated from ZSF1-Lean or ZSF1 Obese rats; assay: Cardiomyocyte stretch longitudinal stiffness; assay type: cell-based, rat; conditions: 10% strain
Experimental: FIG. 18: Reduced longitudinal stiffness upon VASH inhibition in primary cardiomyocytes isolated from ZSF1-Lean or ZSF1 Obese rats. A) Diastolic Stiffness (elastic modulus at the initial time of peak strain) upon a 10%, 200 ms strain along the long-axis of an isolated cardiomyocyte; B) Stead state stiffness upon strain and hold, and C) stress relaxation (indicator of viscoelasticity) in ZSF1-Lean and Obese cardiomyocytes.
Either freshly isolated or cultured myocytes were diluted to a sparse density (~10×) into a large (22×50 mm) glass bottom petri dish coated with BSA to prevent myocyte adhesion with Normal Tyrodes solution. A small aliquot of Myotak™ was freshly thawed and a 1.5 uL droplet was placed in a dry area of the petri dish and allowed to polymerize (2-3 min). When the droplet had become “tacky” laser etched glass rods (Ion Optix LLC) were lowered into the solution several times to create a thin coating of Myotak which was allowed to dry for 90 seconds before the probes were submersed into the cell-containing bath. […] The Myostretcher apparatus (Ion Optix LLC) was used to stretch myocytes by roughly 10% over either a 200 ms (diastolic) or 5 s (slow) interval while force and sarcomere length were recorded using the Ion Wizard software and MyoCam imaging system (live FFT). […]

[4] = test system: ZSF-1 Obese cardiomyocyte; assay: Immunofluorescence of detyrosinated and tyrosinated tubulin in ZSF1 cardiomyocytes; assay type: cell-based, rat; conditions: 2 hr 37 C incubation
Experimental: Cells were fixed in 4% PFA (Electron Microscopy Sciences) for 10 minutes, washed 3 times with PBS and permeabilized in 0.1% TritonX-100 for 10 minutes at room temperature. After washing twice with PBS, cells were placed in blocking buffer (1:1 Seablock (Abcam) and 0.1% TritonX-100 (Bio-Rad) in PBS) for at least 1 hour at room temperature, then labeled with primary antibodies (see below) for 24-48 hours at 4° C. Cells were then washed three times in TBS, then labeled with secondary antibodies (see below) in TBS at room temperature for 2-4 hours and washed a final two times with TBS. Stained cells were mounted on #1.5 coverslips in Prolong Diamond Antifade Mountant (Thermo Fisher) for imaging. Alternatively, cells were imaged directly in chambers with TBS. Imaging was carried out on a Zeiss 880 Airyscan confocal microscope operating on an Axiovert Z1 inverted microscope equipped with a Plan-Apochromat 63× oil 1.4 NA objective. Image analysis was performed using ZEN Black software for Airyscan processing, which involves signal integration from the 32 separate sub-resolution detectors in the Airyscan detector and subsequent deconvolution of this integrated signal.

[5] = test system: cardiomyocytes of obese ZSF1 rats; assay: Unloaded shortening contractility of HFpEF myocytes; assay type: cell-based, rat; conditions: 30-weeks aged obese ZSF1 rats, 2-hours treatment
Experimental: FIG. 16: Improved contraction and relaxation kinetics of HFpEF myocytes during unloaded shortening upon VASH inhibition or TTL overexpression in primary cardiomyocytes isolated from WKY, ZSF1-Lean, or ZSF1 Obese rats. A) Contraction amplitude, B) contraction time, and C) relaxation time in isolated rat cardiomyocytes. n=~90 myocytes per group from N=3 ZSF1 Lean or Obese rats; n=60 myocytes from N=2 WKY rats. Two-way ANOVA with factors of genotype and treatment.
as §1

[6] = test system: Swiss mice; assay: Organ histology (Hematoxylin and Eosin) after systemic treatment; assay type: in vivo, mouse
Excerpt: To further ascertain the safety profile of the compounds in an animal model, we administered SVC-02 to Swiss mice and analysed by immunohistological description different organ structures including kidney, heart and lung.

Sequence of recombinant human VASH2 (Q86V25 whole entry): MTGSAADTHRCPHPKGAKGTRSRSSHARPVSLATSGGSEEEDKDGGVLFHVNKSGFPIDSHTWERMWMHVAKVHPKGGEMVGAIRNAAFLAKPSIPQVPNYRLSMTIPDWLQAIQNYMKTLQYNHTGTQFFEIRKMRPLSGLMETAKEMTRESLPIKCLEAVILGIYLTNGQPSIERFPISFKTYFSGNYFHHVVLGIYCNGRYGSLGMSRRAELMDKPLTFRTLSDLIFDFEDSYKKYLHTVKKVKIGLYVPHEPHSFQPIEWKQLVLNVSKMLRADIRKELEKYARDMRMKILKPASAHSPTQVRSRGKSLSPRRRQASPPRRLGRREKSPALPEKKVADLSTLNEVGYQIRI

O=C(O)CCC[C@H](NC(=O)[C@H]1O[C@@H]1C(=O)C[C@@H](Cc1ccc(OCc2ccccc2)cc1)C(=O)O)C(=O)NCCc1ccccc1 [SVC_01]
contraction and relaxation times [1]: dose-dependent and statistically significant improvements | inhibition of detyrosinating activity of recombinant human VASH2 [2]: efficiently inhibited; also recorded: efficient in inhibiting | viscoelastic longitudinal stiffness [3]: viscoelastic longitudinal stiffness is reduced | detyrosinated tubulin in ZSF1 cardiomyocytes [4]: virtual elimination of detyrosinated microtubule; also recorded: significant reduction of tubulin detyrosination | tyrosinated microtubule network [4]: maintained tyrosinated microtubule network | contraction and relaxation kinetics [5]: Both contraction and relaxation kinetics were improved

CCOC(=O)[C@H](Cc1ccc(OCC)cc1)NC(=O)[C@H]1O[C@@H]1C(=O)N[C@@H](Cc1ccc(OCC)cc1)C(=O)OCC [SVC_02]
organ structure (kidney, heart and lung) histology [6]: normal appearance of different organs; also recorded: did not alter organ structure
